Reference: ChEMBL document CHEMBL1130605, “Conformationally restricted carbamate inhibitors of horse serum butyrylcholinesterase” (Bioorg Med Chem Lett, 1998)

Legend:
Butyrylcholinesterase [1] = target: T1, Butyrylcholinesterase (Equus caballus, UniProt Q9N1N9); experiment: Tested for kinetic data for the horse serum Butyrylcholinesterase-Catalyzed Hydrolysis of Butyrylthiocholine; 10e-3/M. sec
Butyrylcholinesterase [2] = target: T1, Butyrylcholinesterase; experiment: Compound was evaluated for irreversible inhibition of Horse serum Butyrylcholinesterase
[3] = target: Butyrylcholinesterase (Equus caballus) (UniProt Q9N1N9)
Butyrylcholinesterase [4] = target: T1, Butyrylcholinesterase; experiment: Compound was evaluated for its inhibitory concentration against Horse serum Butyrylcholinesterase

Structure (SMILES)	Ki (Butyrylcholinesterase [1])	Ki (Butyrylcholinesterase [2]) [nM]	k2 [3]	IC50 (Butyrylcholinesterase [4]) [nM]
CCCCNC(=O)OC1C2CC3CC(C2)CC1C3 (centres undefined)	1.8 10e3* M-1 s-1	800	1.4 10e-3 s-1	
CCCCNC(=O)OC12CC3CC(CC(C3)C1)C2	1.9 10e3* M-1 s-1	800	1.5 10e-3 s-1	
CCCCNC(=O)OC1C[C@H]2CCC1C2 (stereo in doubt; 1) [listing 1 of 2 here]	110 10e3* M-1 s-1	20		
CCCCNC(=O)OC1C[C@H]2CCC1C2 (stereo in doubt; 1) [listing 2 of 2 here]			2.2 10e-3 s-1	
CCCCNC(=O)OC1C[C@H]2CCC1C2 (stereo in doubt; 2) [listing 1 of 2 here]	2.2 10e3* M-1 s-1	420		
CCCCNC(=O)OC1C[C@H]2CCC1C2 (stereo in doubt; 2) [listing 2 of 2 here]			0.92 10e-3 s-1	
CC[N+](C)(C)c1cccc(O)c1 [EDROPHONIUM BROMIDE]		340000		
CNC(=O)Oc1ccc2c(c1)[C@]1(C)CCN(C)[C@@H]1N2C [PHYSOSTIGMINE]				16
